Patent US8003636B2, “Certain crystalline diphenylazetidinone hydrates, pharmaceutical compositions thereof and methods for their use” (Sanofi-Aventis Deutschland GmbH, priority 2007, dated 2011)

Columns and labels:
[1] = Water content on storage at 23° C./60% relative atmospheric humidity; format: physicochemical; conditions: for Water content (%): previously dried to 0.8% water
Protocol: The hydrate obtained in Example 2 was dried under reduced pressure at 50° C. until a water content of 0.8% had been reached. The crystalline product was stored at 23° C./60% relative atmospheric humidity.

[2] = Test of the dissolution rate (USP 27 paddle apparatus); format: physicochemical; conditions: for release [%]: 20 mg in 1000 ml 0.1% aqueous SDS, 37° C., 75 rpm paddle, mean of three
Protocol: The dissolution rate of the crystalline hydrates of the formula I was tested as follows: […]
The dissolution rate is measured in a standard apparatus (paddle) according to the US Pharmacopeia (USP 27) at 37° C. The stirrer speed is 75 rpm.
20 mg of the substance to be examined are added to 1000 ml of a 0.1% strength aqueous sodium dodecylsulfate (SDS) solution. After 15, 30, 45 and 60 minutes, samples of 20 ml are taken.
The portion dissolved is determined photometrically at 256 nm using a comparison solution. The measurement is carried out in 10 mm cuvettes using, for example, a Perkin Elmer Lambda 25 photometer. The samples are measured directly after removal of the samples. In each case, a mean is calculated from three determinations.
The comparison solution is prepared as follows: 2-3 mg of the batch used are dissolved in 2 ml of dimethylformamide in a measuring flask. The volume is then made up to 100.0 ml using 0.1% strength SDS solution.
The amorphous compound of the formula I used in Example 2 was compared to the crystalline compound of the formula I obtained in the same Example 2.

Cholesterol absorption = assay: Effect on cholesterol absorption + 3H-taurocholic acid elimination via fecal elimination; format: in vivo, NMRI mice; conditions: dose which doubles fecal elimination of TCA or cholesterol vs control group, peroral, feces collected over 24 h
Protocol: Effect on Cholesterol Absorption+^3H-Taurocholic Acid Elimination via Fecal Elimination in Mice, Rats or Hamsters
NMRI mice, Wistar rats or Golden Syrian hamsters (in groups of n=4-6) are kept with a standard diet (Altromin, Lage (Lippe), Germany) in metabolic cages. The afternoon prior to the administration of the radioactive tracers (^14C-cholesterol) the feed is withdrawn, and the animals are adapted to the cage wires.
In addition, 24 hours prior to the peroral administration of the test meal (^14C-cholesterol in Intralipid® 20, Pharmacia-Upjohn), the animals are labelled s.c. with ^3H-TCA (taurocholic acid) (for example 1 μCi/mouse to 5 μCi/rat).
Cholesterol absorption test: 0.25 ml/mouse Intralipid® 20 (Pharmacia-Upjohn) (spiked with 0.25 μCi ^14C-cholesterol in 0.1 mg of cholesterol) is administered perorally using a stomach tube. […]
The feces are collected over a period of 24 h: the fecal elimination of ^14C-cholesterol and 3H-taurocholic acid (TCA) is determined after 24 hours. […]
The total weight is determined, the sample is made up with water to a defined volume and then homogenized, an aliquot is evaporated to dryness and incinerated in an Oximate (Model 307, Packard, for the incineration of radioactively labelled samples): the amount of radioactive ^3H—H2O und ^14C—CO2 is extrapolated to the amount of ^3H-taurocholic acid or ^14C-cholesterol eliminated (dual isotope technique). […]

[3] = storage time 0.5 h at 23° C./60% relative humidity
[4] = storage time 2 h at 23° C./60% relative humidity
[5] = storage time 4 h at 23° C./60% relative humidity
[6] = storage time 6 h at 23° C./60% relative humidity
[7] = storage time 24 h at 23° C./60% relative humidity

COc1ccc([C@@H]2[C@@H](CC[C@H](O)c3ccc(F)cc3)C(=O)N2c2ccc(CNC(=O)CCCCCCCCCCC(=O)NC[C@H](O)[C@@H](O)[C@H](O)[C@H](O)CO)cc2)cc1 [Example 6]
n (hydrate water per formula I) [1, 3]: 0.5 | Water content (%) [1, 3]: 1.1% | n (hydrate water per formula I) [1, 4]: 1.09 | Water content (%) [1, 4]: 2.4% | n (hydrate water per formula I) [1, 5]: 1.14 | Water content (%) [1, 5]: 2.5% | n (hydrate water per formula I) [1, 6]: 1.09 | Water content (%) [1, 6]: 2.4% | n (hydrate water per formula I) [1, 7]: 1.14 | Water content (%) [1, 7]: 2.5%

COc1ccc([C@@H]2[C@@H](CC[C@H](O)c3ccc(F)cc3)C(=O)N2c2ccc(CNC(=O)CCCCCCCCCCC(=O)NC[C@H](O)[C@@H](O)[C@H](O)[C@H](O)CO)cc2)cc1 [Amorphous compound of the formula II, reference compound]
release [%] ([2]; 15 min): 30.0% | release [%] ([2]; 30 min): 41.3% | release [%] ([2]; 45 min): 44.7% | release [%] ([2]; 60 min): 46.2%

COc1ccc([C@@H]2[C@@H](CC[C@H](O)c3ccc(F)cc3)C(=O)N2c2ccc(CNC(=O)CCCCCCCCCCC(=O)NC[C@H](O)[C@@H](O)[C@H](O)[C@H](O)CO)cc2)cc1 [Example 2]
ED200 value (fecal elimination [mg/mouse]) (Cholesterol absorption): 0.01 mg/mouse | release [%] ([2]; 15 min, listed as Crystalline compound of the formula I): 88.0% | release [%] ([2]; 30 min, listed as Crystalline compound of the formula I): 90.0% | release [%] ([2]; 45 min, listed as Crystalline compound of the formula I): 94.6% | release [%] ([2]; 60 min, listed as Crystalline compound of the formula I): 98.7% | amount in solution relative to the amorphous active ingredient ([2]; after 15 minutes): almost three times the amount of the amorphous active ingredient
